Data: PMC6515286 (Molecules, 2019)
Where a name gives a salt, the structure may show the parent alone.

Assays:
D2 receptor = D2 receptor (Homo sapiens, UniProt P14416); experiment: in vitro binding to D2 receptor (screening protocol); settings: read-out: Ki ± SD D2
Procedure: (§1) The ligands obtained in the synthesis (10a–r) were tested in vitro for binding to D2, 5-HT1A, 5-HT2A, 5-HT6, and 5-HT7 receptors on the basis of the screening protocol described previously (Table 6).

5-HT2A receptor = 5-HT2A receptor (Homo sapiens, UniProt P28223); experiment: in vitro binding to 5-HT2A receptor (screening protocol); settings: read-out: Ki ± SD 5-HT2A
5-HT2A receptor, sequence (P28223 whole entry): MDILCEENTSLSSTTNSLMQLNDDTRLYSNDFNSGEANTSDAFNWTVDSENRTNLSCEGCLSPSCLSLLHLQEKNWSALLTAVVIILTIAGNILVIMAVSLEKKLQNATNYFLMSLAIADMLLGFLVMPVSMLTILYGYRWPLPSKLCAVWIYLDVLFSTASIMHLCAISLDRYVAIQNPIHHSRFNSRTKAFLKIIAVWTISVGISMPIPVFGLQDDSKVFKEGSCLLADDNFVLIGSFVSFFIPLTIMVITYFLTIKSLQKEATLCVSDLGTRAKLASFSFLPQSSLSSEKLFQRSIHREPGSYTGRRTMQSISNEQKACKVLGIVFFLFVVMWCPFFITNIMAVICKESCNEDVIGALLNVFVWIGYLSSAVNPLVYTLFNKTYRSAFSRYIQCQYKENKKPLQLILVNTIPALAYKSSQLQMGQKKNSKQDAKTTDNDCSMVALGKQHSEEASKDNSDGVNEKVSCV
Procedure: as §1

5-HT6 receptor = 5-HT6 receptor (Homo sapiens, UniProt P50406); experiment: in vitro binding to 5-HT6 receptor (screening protocol); settings: read-out: Ki ± SD 5-HT6
5-HT6 receptor, sequence (P50406 whole entry): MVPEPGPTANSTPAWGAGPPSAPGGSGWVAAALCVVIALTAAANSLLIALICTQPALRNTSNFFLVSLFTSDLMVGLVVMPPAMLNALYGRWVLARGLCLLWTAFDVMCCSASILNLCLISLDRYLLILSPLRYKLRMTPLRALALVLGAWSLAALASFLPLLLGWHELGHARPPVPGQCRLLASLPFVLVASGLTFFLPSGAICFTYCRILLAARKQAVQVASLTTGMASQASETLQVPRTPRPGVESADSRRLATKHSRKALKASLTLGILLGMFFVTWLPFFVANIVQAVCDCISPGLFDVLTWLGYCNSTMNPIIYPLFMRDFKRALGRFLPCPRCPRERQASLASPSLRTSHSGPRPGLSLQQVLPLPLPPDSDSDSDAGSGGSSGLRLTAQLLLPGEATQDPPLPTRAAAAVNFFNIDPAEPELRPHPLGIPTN
Procedure: as §1

5-HT7 receptor = 5-HT7 receptor (Homo sapiens, UniProt P34969); experiment: in vitro binding to 5-HT7 receptor (screening protocol); settings: read-out: Ki ± SD 5-HT7
5-HT7 receptor, sequence (P34969 whole entry): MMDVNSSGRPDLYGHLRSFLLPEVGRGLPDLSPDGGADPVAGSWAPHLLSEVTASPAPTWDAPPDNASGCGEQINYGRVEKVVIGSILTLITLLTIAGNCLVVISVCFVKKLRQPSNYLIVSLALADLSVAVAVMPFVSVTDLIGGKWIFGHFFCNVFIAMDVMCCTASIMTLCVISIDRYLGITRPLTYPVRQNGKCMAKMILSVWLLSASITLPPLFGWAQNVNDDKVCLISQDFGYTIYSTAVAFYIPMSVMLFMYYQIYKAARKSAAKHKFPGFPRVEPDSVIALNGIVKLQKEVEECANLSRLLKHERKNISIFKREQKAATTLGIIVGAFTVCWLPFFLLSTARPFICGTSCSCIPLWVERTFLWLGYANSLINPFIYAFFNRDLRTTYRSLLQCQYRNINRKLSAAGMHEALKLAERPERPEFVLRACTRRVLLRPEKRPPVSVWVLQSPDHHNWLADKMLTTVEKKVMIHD
Procedure: as §1

5-HT1A receptor = biological target: T1, 5-HT1A receptor (Homo sapiens, UniProt P08908); experiment: in vitro binding to 5-HT1A receptor (screening protocol); settings: read-out: Ki ± SD 5-HT1A
T1 sequence (P08908 1-422): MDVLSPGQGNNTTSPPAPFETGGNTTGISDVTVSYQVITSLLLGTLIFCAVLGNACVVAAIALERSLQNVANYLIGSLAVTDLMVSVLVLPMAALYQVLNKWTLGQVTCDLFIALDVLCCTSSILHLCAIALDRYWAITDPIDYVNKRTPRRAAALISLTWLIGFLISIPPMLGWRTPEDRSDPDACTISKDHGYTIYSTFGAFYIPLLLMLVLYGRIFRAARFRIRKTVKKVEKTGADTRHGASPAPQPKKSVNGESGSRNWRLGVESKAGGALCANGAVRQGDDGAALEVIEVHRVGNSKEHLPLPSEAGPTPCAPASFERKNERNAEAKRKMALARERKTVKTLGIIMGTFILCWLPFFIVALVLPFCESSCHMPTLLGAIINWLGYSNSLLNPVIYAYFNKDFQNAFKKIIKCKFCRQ
Procedure: as §1

D2 receptor, sequence (P14416 whole entry): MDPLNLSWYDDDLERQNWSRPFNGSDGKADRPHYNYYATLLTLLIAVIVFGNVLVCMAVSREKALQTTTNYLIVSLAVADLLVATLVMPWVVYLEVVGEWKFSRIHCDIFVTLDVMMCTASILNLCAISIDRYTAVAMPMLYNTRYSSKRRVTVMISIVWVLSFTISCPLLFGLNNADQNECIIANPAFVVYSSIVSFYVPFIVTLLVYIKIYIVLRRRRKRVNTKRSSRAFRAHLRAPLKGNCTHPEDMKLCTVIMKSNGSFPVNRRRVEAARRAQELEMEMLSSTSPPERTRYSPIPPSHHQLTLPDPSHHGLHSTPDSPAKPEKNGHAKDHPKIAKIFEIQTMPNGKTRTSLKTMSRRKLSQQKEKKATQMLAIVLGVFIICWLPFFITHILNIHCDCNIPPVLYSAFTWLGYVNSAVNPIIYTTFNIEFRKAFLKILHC

Compound	Ki (D2 receptor) [nM]	Ki (5-HT2A receptor) [nM]	Ki (5-HT6 receptor) [nM]	Ki (5-HT7 receptor) [nM]	Ki (5-HT1A receptor) [nM]
O=c1n(CCCN2CCN(c3ncccn3)CC2)nc2ccccn12 [10c, 2-[3-(4-pyrimidin-2-ylpiperazin-1-yl)propyl]-[1,2,4]triazolo[4,3-a]pyridin-3-one hydrochloride]	122 ± 8	178 ± 25	3250 ± 401	174 ± 34	459 ± 36
O=c1n(CCCCCCN2CCN(c3cccc(Cl)c3)CC2)nc2ccccn12 [10e, 2-[6-[4-(3-chlorophenyl)piperazin-1-yl]hexyl]-[1,2,4]triazolo[4,3-a]pyridin-3-one hydrochloride]	137 ± 11	342 ± 48	1940 ± 281	278 ± 19	16 ± 2
O=c1n(CCCCCCN2CCN(c3ccc(Cl)cc3)CC2)nc2ccccn12 [10g, 2-[6-[4-(4-chlorophenyl)piperazin-1-yl]hexyl]-[1,2,4]triazolo[4,3-a]pyridin-3-one hydrochloride]	362 ± 17	234 ± 46	2060 ± 173	435 ± 61	27 ± 3
O=c1n(CCCCCCN2CCN(c3ccc(Cl)c(Cl)c3)CC2)nc2ccccn12 [10h, 2-[6-[4-(3,4-dichlorophenyl)piperazin-1-yl]hexyl]-[1,2,4]triazolo[4,3-a]pyridin-3-one hydrochloride]	310 ± 42	77 ± 14	576 ± 82	196 ± 29	19 ± 3
COc1ccccc1N1CCN(CCCCCCn2nc3ccccn3c2=O)CC1 [10j, 2-[6-[4-(2-methoxyphenyl)piperazin-1-yl]hexyl]-[1,2,4]triazolo[4,3-a]pyridin-3-one hydrochloride]	57 ± 6	841 ± 105	11500	219 ± 36	4 ± 1
COc1cccc(N2CCN(CCCCCCn3nc4ccccn4c3=O)CC2)c1 [10k, 2-[6-[4-(3-methoxyphenyl)piperazin-1-yl]hexyl]-[1,2,4]triazolo[4,3-a]pyridin-3-one hydrochloride]	21 ± 3	343 ± 21	3500 ± 537	1020 ± 184	9 ± 2
COc1ccc(N2CCN(CCCCCCn3nc4ccccn4c3=O)CC2)cc1 [10l, 2-[6-[4-(4-methoxyphenyl)piperazin-1-yl]hexyl]-[1,2,4]triazolo[4,3-a]pyridin-3-one hydrochloride]	350 ± 54	3900 ± 432	5620 ± 743	8300 ± 1350	826 ± 91
CCOc1ccccc1N1CCN(CCCCCCn2nc3ccccn3c2=O)CC1 [10m, 2-[6-[4-(2-ethoxyphenyl)piperazin-1-yl]hexyl]-[1,2,4]triazolo[4,3-a]pyridin-3-one hydrochloride]	1640 ± 219	1540 ± 225	4820 ± 581	251 ± 52	9 ± 2
O=c1n(CCCCCCN2CCN(c3ccccn3)CC2)nc2ccccn12 [10n, 2-[6-[4-(2-pyridyl)piperazin-1-yl]hexyl]-[1,2,4]triazolo[4,3-a]pyridin-3-one hydrochloride]	10 ± 2	1720 ± 193	4640 ± 341	1050 ± 91	18 ± 3
O=c1n(CCCCCCN2CCN(c3ncccn3)CC2)nc2ccccn12 [10o, 2-[6-(4-pyrimidin-2-ylpiperazin-1-yl)hexyl]-[1,2,4]triazolo[4,3-a]pyridin-3-one hydrochloride]	202 ± 31	10600	7220 ± 827	5570 ± 438	104 ± 12
O=c1n(CCCCCCN2CCN(c3ccccc3)CC2)nc2ccccn12 [10p, 2-[6-(4-phenylpiperazin-1-yl)hexyl]-[1,2,4]triazolo[4,3-a]pyridin-3-one hydrochloride]	1530 ± 116	391 ± 27	3330 ± 197	404 ± 67	28 ± 4
O=c1n(CCCCCCN2CCN(c3ccccc3-c3ccccc3)CC2)nc2ccccn12 [10r, 2-[6-[4-(2-phenylphenyl)piperazin-1-yl]hexyl]-[1,2,4]triazolo[4,3-a]pyridin-3-one hydrochloride]	191 ± 14	328 ± 49	1190 ± 165	19 ± 3	20 ± 3

Results, then the compound that gave them:

Ki (D2 receptor) [nM]	Ki (5-HT2A receptor) [nM]	Ki (5-HT6 receptor) [nM]	Ki (5-HT7 receptor) [nM]	Ki (5-HT1A receptor) [nM]	Compound
116 ± 19	181 ± 22	1430 ± 294	157 ± 13		O=c1n(CCCN2CCN(c3cccc(Cl)c3Cl)CC2)nc2ccccn12 [10a, 2-[3-[4-(2,3-dichlorophenyl)piperazin-1-yl]propyl]-[1,2,4]triazolo[4,3-a]pyridin-3-one hydrochloride]
1650 ± 203	969 ± 114	36400	7420 ± 625	1550 ± 314	O=c1n(CCCN2CCN(c3ccccc3F)CC2)nc2ccccn12 [10b, 2-[3-[4-(2-fluorophenyl)piperazin-1-yl]propyl]-[1,2,4]triazolo[4,3-a]pyridin-3-one hydrochloride]
152 ± 17	6710 ± 952	9460 ± 1140	539 ± 68	593 ± 81	CCOc1ccccc1N1CCN(CCCn2nc3ccccn3c2=O)CC1 [10d, 2-[3-[4-(2-ethoxyphenyl)piperazin-1-yl]propyl]-[1,2,4]triazolo[4,3-a]pyridin-3-one hydrochloride]
522 ± 71	2600 ± 318	3570 ± 563	2600 ± 359	49 ± 4	O=c1n(CCCCCCN2CCN(c3ccccc3Cl)CC2)nc2ccccn12 [10f, 2-[6-[4-(2-chlorophenyl)piperazin-1-yl]hexyl]-[1,2,4]triazolo[4,3-a]pyridin-3-one hydrochloride]
195 ± 11	417 ± 52	4740 ± 687	993 ± 214	7 ± 2	O=c1n(CCCCCCN2CCN(c3ccccc3F)CC2)nc2ccccn12 [10i, 2-[6-[4-(2-fluorophenyl)piperazin-1-yl]hexyl]-[1,2,4]triazolo[4,3-a]pyridin-3-one hydrochloride]
